The results in this text go back to a melting point compilation (Tetko et al.; mined from patent text by program, amines drawn as free bases though some values may be those of a salt).

In general, melting point refers to the temperature of the solid-liquid transition. Turning to `O=C(O)Cn1c(-c2ccccc2)c(Cc2nc3c(F)c(F)cc(F)c3s2)c2ccccc21`, the melting point lay in the range of 238 to 239 °C.

The compound `CC(=O)Nc1cccc(/C=C/C(=O)N2CC(CCl)c3c2cc(N)c2ccccc32)c1` (stereo not drawn) displayed a melting point above 250 °C.

`COC(=O)CCCc1cc2cc(Cl)ccc2n1S(=O)(=O)c1ccc2ncsc2c1` registered a melting point of 121 to 123 °C.

For `COc1cc2ncc(C#N)c(Cl)c2cc1[N+](=O)[O-]`, the melting point fell in the range of 214 to 215 °C.

`COC(=O)c1[nH]c2ccccc2c1Oc1ccccc1[N+](=O)[O-]` gave a melting point of 201 to 202 °C.

In turn, `Cc1c(F)cc(C(=O)O)c(Cl)c1[N+](=O)[O-]` returned a melting point of 186 to 188 °C.

In the case of `CN(C(=O)OC(C)(C)C)c1cc(Oc2ccc(-c3nnn(C(c4ccccc4)(c4ccccc4)c4ccccc4)n3)cc2)ccc1N`, the melting point was in the range of 192 to 193 °C.

Compound `COc1ccccc1N1CCN(CCn2cnc3c(c2=O)CN(Cc2ccccc2)CC3)CC1` returned a melting point of 200 °C.

On to `COC1=C(OC)C(=O)C(CN2CCN(C(=S)SC)CC2)=C(C)C1=O`, for which the melting point was in the range of 115 to 116 °C.

For the compound `CC(C)C[C@H](NC(=O)OC(C)(C)C)C(=O)N[C@@H](C(C)C)[C@@H](O)c1c(-c2ccc(F)cc2)c1=O`, the melting point lay in the range of 90 to 96 °C.

With `COc1ccc(N=C(C#Cc2ccccc2)N2CCN(Cc3ccccc3)CC2)cc1`, the melting point came out at 104 °C.

`CCOC(=O)Cc1ccc(NC(=O)C(CC(C)C)NS(=O)(=O)c2ccc(Cl)cc2)cc1` (racemic) showed a melting point of 117 to 120 °C.

The compound `Cn1c(-c2ccccc2Cl)cc2ncccc2c1=O` displayed a melting point of 152 to 153 °C.

`CCc1c(-c2cnccn2)ssc1=S` gave a melting point of 121 °C.

With `O=C(Cc1csc(Nc2ccccc2)n1)NC1CCN(Cc2ccc(Cl)c(Cl)c2)CC1`, the melting point was in the range of 191 to 192 °C.

Compound `COCCN1CCc2cc(Nc3ncc(Cl)c(NC4(C(=O)NCC#N)CC4)n3)c(OC)cc2CC1` displayed a melting point of 187 to 189 °C.

With `CC(C)c1nc(C(=O)NC2CC2)c(C(=O)O)o1`, the melting point was 109 to 112 °C.

In turn, `Oc1ccc(C2CCc3ccc(O)cc3O2)cc1` (stereo not drawn) displayed a melting point of 110 to 111 °C.

For `O=[N+]([O-])c1ccc(-n2nccn2)cc1`, the melting point lay within 183 to 184 °C.

Regarding `Cn1cc(-c2cc(-c3ccc4[nH]ncc4c3)ccn2)n(-c2ccc(C(C)(C)C#N)cc2)c1=O`, the melting point came to 165 °C.

The compound `Cc1cccc(-c2nc3ccc(Cl)nn3c2-c2ccnc(N)n2)c1` yielded a melting point of 237 to 238 °C.

`COC(=O)C(=CN(C)C)C(=O)c1cc(F)c(Cl)cc1Cl` registered a melting point of 107 to 109 °C.

`COc1ccc(N2CCOCC2)c2sc(C(=O)NCC(=O)c3ccc4c(c3)OCCO4)nc12`: the melting point stood at 175 °C.

In the case of `CC1(C)Oc2ccc([N+](=O)[O-])cc2C(n2ccccc2=O)=C1CNC(=O)C(F)(F)F`, the melting point was 189 °C.

Consider `CCCCCCSc1nn2c(=O)cc(Cl)nc2s1`, for which the melting point is 95 to 96 °C.

As to `N#CCN(C1CC1)S(=O)(=O)Cc1cccc(C(F)(F)F)c1`, the melting point was 70.1 to 71 °C.

Take `COc1ccc(-c2c(C(=O)Cl)sc3ccccc23)cc1OC`: the melting point was 113 °C.

In the case of `Nc1ccc(OC(F)(F)C(F)F)cc1[N+](=O)[O-]`, the melting point lay in the range of 83.9 to 84.4 °C.

`O=C1CSC(c2cccc(Cl)c2)c2cc(C(=O)c3ccc(Cl)cc3)ccc2N1` (stereo not drawn) yielded a melting point of 222 °C.

`C=C(C)C(=O)NCCCCCCCCCCCC(=O)O` returned a melting point of 70.8 to 72.4 °C.

Turning to `CCOC1=CCc2c(OC)ccc(OC)c2C1`, the melting point fell in the range of 102 to 103 °C.

In turn, `CC(=O)OC1CSC(Oc2cccc(-c3nccs3)c2)C(OC(C)=O)C1OC(C)=O` (stereo not drawn) registered a melting point of 65 °C.

The compound `CCCCCCc1cc2c(cc1C(=O)O)C(C)(C)CCC2(C)C` gave a melting point of 98 to 99 °C.

Take `O=C1NC(=O)C(c2cccs2)O1` (stereo not drawn): the melting point was 138 to 140 °C.

`CCCCc1nc(C(O)(CC)CC)c(C(=O)O)n1Cc1ccc(-c2ccccc2-c2nnn[nH]2)cc1` gave a melting point of 181 to 183 °C.

As to `COc1ccn2nc(S(=O)(=O)Cl)nc2n1`, the melting point lay within 110 to 112 °C.

In the case of `C=CC12CCc3cc(O)ccc3C1=CCC1(C)C(O)CCC21` (stereo not drawn), the melting point fell in the range of 149 to 150 °C.

Compound `C=CCc1ccc(C(NC(=O)OC(C)(C)C)C(=O)OC)cc1` (stereo not drawn) returned a melting point of 60.6 to 62 °C.

The compound `CC(C)C(NC(=O)C(NC(=O)C1CCCN1C(=O)OC(C)(C)C)C(Cc1ccccc1)C(=O)O)C(=O)NC(Cc1ccc(O)cc1)C(=O)OCc1ccccc1` (stereo not drawn) registered a melting point of 75 to 78 °C.

In turn, `CCCCC12CCC3C4CCC(=O)C=C4CCC3C1CCC2O` (stereo not drawn) showed a melting point of 169 to 170 °C.

The compound `C#CC1(Oc2ccc(F)cc2[N+](=O)[O-])CCN(C(=O)OCC)CC1` displayed a melting point of 56 to 68 °C.

`Cc1cc2c(c(C)c1NC(=O)OC(C)(C)C)CCO2` gave a melting point of 121 to 122 °C.

`COc1ccc(CC(C(=O)Nc2nc3ccccc3o2)c2ccc(S(C)(=O)=O)cc2)cc1` (stereo not drawn) yielded a melting point of 102 to 106 °C.

`Cc1cc(C)c(C(O)c2ccc(-n3ccnc3)c(Cl)c2)c(C)c1` (stereo not drawn): the melting point was 156 to 157 °C.

The compound `CCCCOCCOc1ccc(-c2ccc3c(c2)C=C(C(=O)Nc2ccc(CCCn4cnnc4)cc2)CCN3CCC)cc1` displayed a melting point of 191 to 194 °C.

Compound `CCn1c(=O)c2c(nc(/C=C/c3ccc(O)c(O)c3)n2C)n(CC)c1=O` displayed a melting point of 248 °C.

Take `CCCCCCCN(CC(c1ccccc1)c1ccccc1)C(=O)Nc1c(C)cccc1C`: the melting point lay within 171 to 173 °C.

Turning to `CC12CC(=O)C3C(CCC4CC(O)CCC43C)C1CCC2C(=O)O` (stereo not drawn), the melting point was 265 to 270 °C.

For `COCCOC(=O)c1ccc(O)cc1`, the melting point lay in the range of 90 to 93 °C.

For the compound `COc1ccc2c(c1)C(=O)Nc1ccccc1N2`, the melting point was in the range of 216 to 218 °C.

For `CC(C)OC(=O)c1ncn2c1[C@@H]1CCCN1C(=O)c1ccccc1-2`, the melting point lay in the range of 207 to 208 °C.

`O=C(O)c1cc(Oc2c(Cl)cc(Cl)cc2Cl)ccc1[N+](=O)[O-]`: the melting point amounted to 192 °C.

In turn, `Cc1c(C)c2c(c(C)c1N)CC(C)(CNCCN1CCCCC1)O2` (stereo not drawn) displayed a melting point of 102 to 104 °C.

The compound `O=C(CN1CC2C(=O)N(c3cc(Cl)cc(Cl)c3)C(=O)C2C1)c1ccc(Br)cc1` (stereo not drawn) returned a melting point of 150 °C.

In turn, `CC(C)Oc1cc(CCC(=O)NS(C)(=O)=O)n(Cc2ccc(Cl)cc2Cl)n1` displayed a melting point of 104 to 105 °C.

For the compound `CCNC(=O)c1nc2n(n1)-c1ccc(Cl)cc1C(c1ccccc1F)=NC2`, the melting point fell in the range of 232 to 234 °C.

Consider `Cc1ccc(CNC(=S)NCCO)c(C)c1`, for which the melting point fell in the range of 101 to 103 °C.

For `CCOC(=O)C(C#N)C(=O)c1cccn1C` (stereo not drawn), the melting point lay within 74 to 77 °C.

On to `N#Cc1csc(CN2C(=O)C3(COc4cc5c(cc43)OCO5)c3ccccc32)c1` (stereo not drawn), for which the melting point fell in the range of 207 to 209 °C.

`CCOC(=O)c1cn(C(C)(C)C)c2nc(F)c(Cl)cc2c1=O` yielded a melting point of 155 °C.

For `CCOC(=O)Nc1ccc2c(c1)CCSCC2=O`, the melting point lay within 145 to 146 °C.

Consider `O=C1OC(=O)C(c2ccc(Cl)cc2)=C1Cl`, for which the melting point lay within 110 to 112 °C.

`CN1CCC(=C2c3ccccc3CCn3cc(-c4ccccc4)nc32)CC1` showed a melting point of 172 °C.

For the compound `COc1cc(N)c(I)cc1C(=O)O`, the melting point turned out to be 181 °C.

In turn, `O=C1NCN(c2ccccc2)C12CCN(CC1=Cc3ccccc3CC1)CC2` displayed a melting point of 205 to 206 °C.

As for `COc1c[nH]c(=O)c([N+](=O)[O-])c1`, the melting point came to 179 °C.

In turn, `CCOC(=O)c1cn(C(c2ccccc2)(c2ccccc2)c2ccccc2)cn1` returned a melting point of 163 to 164 °C.

On to `Oc1cccc2c1Oc1ccccc1C21CCN(CC=CCl)CC1`, for which the melting point lay in the range of 153 to 155 °C.

As for `COc1cc(N)c(Cl)cc1C(=O)NC1CCN(CC2CCCCC2)CC1C` (stereo not drawn), the melting point lay within 173 to 176 °C.

Turning to `COc1ccc(-c2c(C(=O)CC(C)C)c(CSc3nccn3C)nc3cc(OC)c(OC)cc23)cc1OC`, the melting point was 152 to 153 °C.

For the compound `CCN(C(=O)N(C)C(=O)NC)c1ccccc1`, the melting point was 57 to 58 °C.

`CC(C)n1nc(-c2sc(C(=O)NCc3ccccn3)nc2-c2cccc(Cl)c2)ccc1=O` showed a melting point of 168 to 170 °C.

As for `Cc1cc(Cl)cc2c(-c3ccccc3)onc12`, the melting point was in the range of 108 to 109 °C.

On to `Cc1noc(NS(=O)(=O)c2ccccc2-c2ncccn2)c1C`, for which the melting point is 160 to 162 °C.

The compound `Cc1ccc(-c2nn(-c3cccc(C(=O)O)c3)c(N)c2C(N)=O)cc1` had a melting point of 232 to 235 °C.

`NCCNC(=O)CC(CO)c1c(Cl)cccc1Cl` (stereo not drawn): the melting point was in the range of 127 to 129 °C.

The compound `Cc1nc(N2CCC(Cc3ccc(OC(F)(F)F)cc3)C2=O)sc1C(=O)NCc1ccc(F)cc1` (stereo not drawn) had a melting point of 165 to 166 °C.

With `CCCC(=O)c1cnc2cc(CO)ccc2c1Nc1ccccc1C`, the melting point was 176 to 178 °C.

The compound `COc1ccc(CCN(C)CCCCc2ccc(NC(=O)c3cccc4c(=O)c5cc(F)ccc5sc34)cc2)cc1OC` gave a melting point of 145 °C.

In turn, `CC(C)(C)NS(=O)(=O)c1cncc(Br)c1` displayed a melting point of 110 °C.

Regarding `COc1ccc(-c2ccc3cnc(Nc4ccc5c(c4)N(S(C)(=O)=O)CCC5)nn23)cn1`, the melting point lay within 202 to 203 °C.

On to `COc1ccc(CNc2cc3c(Nc4ccc(OCc5ccccn5)c(Cl)c4)ncnc3cn2)cc1`, for which the melting point is 182 to 184 °C.

`Cc1ccc(N2CCN(Cc3cnc(N)nc3N)CC2)cc1` registered a melting point of 248 to 250 °C.

The compound `Clc1ccc2oc(-c3ccccc3)cc2c1` showed a melting point of 140 to 143 °C.

Turning to `CCc1cccc(-c2ccc(S(=O)(=O)N3c4ccccc4CC3C(=O)O)cc2)c1` (stereo not drawn), the melting point was in the range of 70 to 72 °C.

The compound `C=CC(c1ccccc1)c1cc(C)c2c(c1O)C(=NO)CC2` (stereo not drawn) showed a melting point of 146 °C.

Compound `OCc1cnoc1-c1cc(Cl)ccc1Cl` registered a melting point of 51 to 52 °C.

In turn, `CC(C)COC(=O)N1CCC(c2ccc3oc(-c4ccc(S(C)(=O)=O)cc4F)nc3c2)CC1` came in with a melting point of 169 to 173 °C.
